Results published in PubChem BioAssay AID1963840 (Molecular Pharmacology Branch, DTP, NCI, 2024).

System: 695427-040-R-J1-PDC complex spheroid viability
Assay: Anticancer human tumor 695427-040-R-J1-PDC patient-derived colon adenocarcinoma cell line growth inhibition [POLQ]
Conditions: for IC50: curve of first compound; for viability, T/C: stronger effect = lower value
Summary of the method: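 Complex spheroid viability model combining PDC tumour cells with endothelial (HUVEC) and MSC stromal cells. Novobiocin, ART-558 or RP6685 were tested singly and in combination with standard and investigational anticancer drugs. Each was titrated in half-log steps from near clinical Cmax, or from 10 microM where Cmax was unknown.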

[1] = second compound 0.0316 µM, first compound 0.00316 µM
[2] = second compound 0.0316 µM, first compound 0.01 µM
[3] = second compound 0.0316 µM, first compound 0.0316 µM
[4] = second compound 0.0316 µM, first compound 0.1 µM
[5] = second compound 0.0316 µM, first compound 0.316 µM
[6] = second compound 0.0316 µM, first compound 1 µM
[7] = second compound 0.1 µM, first compound 0.00316 µM
[8] = second compound 0.1 µM, first compound 0.01 µM
[9] = second compound 0.1 µM, first compound 0.0316 µM
[10] = second compound 0.1 µM, first compound 0.1 µM
[11] = second compound 0.1 µM, first compound 0.316 µM
[12] = second compound 0.1 µM, first compound 1 µM
[13] = second compound 0.316 µM, first compound 0.00316 µM
[14] = second compound 0.316 µM, first compound 0.01 µM
[15] = second compound 0.316 µM, first compound 0.0316 µM
[16] = second compound 0.316 µM, first compound 0.1 µM
[17] = second compound 0.316 µM, first compound 0.316 µM
[18] = second compound 0.316 µM, first compound 1 µM
[19] = second compound 1 µM, first compound 0.00316 µM
[20] = second compound 1 µM, first compound 0.01 µM
[21] = second compound 1 µM, first compound 0.0316 µM
[22] = second compound 1 µM, first compound 0.1 µM
[23] = second compound 1 µM, first compound 0.316 µM
[24] = second compound 1 µM, first compound 1 µM
[25] = second compound 3.16 µM, first compound 0.00316 µM
[26] = second compound 3.16 µM, first compound 0.01 µM
[27] = second compound 3.16 µM, first compound 0.0316 µM
[28] = second compound 3.16 µM, first compound 0.1 µM
[29] = second compound 3.16 µM, first compound 0.316 µM
[30] = second compound 3.16 µM, first compound 1 µM
[31] = second compound 10 µM, first compound 0.00316 µM
[32] = second compound 10 µM, first compound 0.01 µM
[33] = second compound 10 µM, first compound 0.0316 µM
[34] = second compound 10 µM, first compound 0.1 µM
[35] = second compound 10 µM, first compound 0.316 µM
[36] = second compound 10 µM, first compound 1 µM
[37] = second compound 0.0316 µM, first compound 3.16 µM
[38] = second compound 0.0316 µM, first compound 10 µM
[39] = second compound 0.1 µM, first compound 3.16 µM
[40] = second compound 0.1 µM, first compound 10 µM
[41] = second compound 0.316 µM, first compound 3.16 µM
[42] = second compound 0.316 µM, first compound 10 µM
[43] = second compound 1 µM, first compound 3.16 µM
[44] = second compound 1 µM, first compound 10 µM
[45] = second compound 3.16 µM, first compound 3.16 µM
[46] = second compound 3.16 µM, first compound 10 µM
[47] = second compound 10 µM, first compound 3.16 µM
[48] = second compound 10 µM, first compound 10 µM
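Also: spheroids exposed to compounds for seven days.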
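For viability, T/C in this document: 100% = DMSO vehicle control viability.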

C=CCn1c(=O)c2cnc(Nc3ccc(N4CCN(C)CC4)cc3)nc2n1-c1cccc(C(C)(C)O)n1 + Nc1ccc(C#CCN(C(=O)Cc2ncc(C(F)(F)F)cc2C(F)(F)F)c2ccc(F)cc2)nn1
IC50 (second compound 0.0316 µM): > 1 µM | IC50 (second compound 0.1 µM): > 1 µM | IC50 (second compound 0.316 µM): > 1 µM | IC50 (second compound 1 µM): > 1 µM | IC50 (second compound 3.16 µM): > 1 µM | IC50 (second compound 10 µM): > 1 µM | viability, T/C [1]: 101% | viability, T/C [2]: 99.5% | viability, T/C [3]: 112% | viability, T/C [4]: 101% | viability, T/C [5]: 96.7% | viability, T/C [6]: 74.6% | viability, T/C [7]: 106% | viability, T/C [8]: 101% | viability, T/C [9]: 94.8% | viability, T/C [10]: 96.9% | viability, T/C [11]: 99.9% | viability, T/C [12]: 78% | viability, T/C [13]: 113% | viability, T/C [14]: 107% | viability, T/C [15]: 101% | viability, T/C [16]: 97.7% | viability, T/C [17]: 91.4% | viability, T/C [18]: 81% | viability, T/C [19]: 104% | viability, T/C [20]: 96% | viability, T/C [21]: 96.4% | viability, T/C [22]: 94.2% | viability, T/C [23]: 93.8% | viability, T/C [24]: 71.7% | viability, T/C [25]: 98.6% | viability, T/C [26]: 101% | viability, T/C [27]: 107% | viability, T/C [28]: 98.7% | viability, T/C [29]: 85.8% | viability, T/C [30]: 74.2% | viability, T/C [31]: 91.8% | viability, T/C [32]: 93.7% | viability, T/C [33]: 85.8% | viability, T/C [34]: 99.4% | viability, T/C [35]: 81.8% | viability, T/C [36]: 65.3%

CCc1c2c(nc3ccc(O)cc13)-c1cc3c(c(=O)n1C2)COC(=O)[C@]3(O)CC + Nc1ccc(C#CCN(C(=O)Cc2ncc(C(F)(F)F)cc2C(F)(F)F)c2ccc(F)cc2)nn1
IC50 (second compound 0.0316 µM): > 1 µM | IC50 (second compound 0.1 µM): > 1 µM | IC50 (second compound 0.316 µM): > 1 µM | IC50 (second compound 1 µM): > 1 µM | IC50 (second compound 3.16 µM): > 1 µM | IC50 (second compound 10 µM): > 1 µM | viability, T/C [1]: 116% | viability, T/C [2]: 102% | viability, T/C [3]: 89.6% | viability, T/C [4]: 90.8% | viability, T/C [5]: 81.2% | viability, T/C [6]: 69.9% | viability, T/C [7]: 114% | viability, T/C [8]: 107% | viability, T/C [9]: 95.7% | viability, T/C [10]: 93.5% | viability, T/C [11]: 81.2% | viability, T/C [12]: 60% | viability, T/C [13]: 117% | viability, T/C [14]: 109% | viability, T/C [15]: 85.3% | viability, T/C [16]: 92.6% | viability, T/C [17]: 85.8% | viability, T/C [18]: 68.3% | viability, T/C [19]: 107% | viability, T/C [20]: 98.7% | viability, T/C [21]: 88.4% | viability, T/C [22]: 85.3% | viability, T/C [23]: 83.6% | viability, T/C [24]: 52.5% | viability, T/C [25]: 101% | viability, T/C [26]: 99.2% | viability, T/C [27]: 97.9% | viability, T/C [28]: 92% | viability, T/C [29]: 77% | viability, T/C [30]: 60.6% | viability, T/C [31]: 101% | viability, T/C [32]: 94.8% | viability, T/C [33]: 86.7% | viability, T/C [34]: 85% | viability, T/C [35]: 72.7% | viability, T/C [36]: 57.1%

CNCc1ccc(-c2[nH]c3cc(F)cc4c3c2CCNC4=O)cc1 + Nc1ccc(C#CCN(C(=O)Cc2ncc(C(F)(F)F)cc2C(F)(F)F)c2ccc(F)cc2)nn1
IC50 (second compound 0.0316 µM): > 10 µM | IC50 (second compound 0.1 µM): > 10 µM | IC50 (second compound 0.316 µM): > 10 µM | IC50 (second compound 1 µM): > 10 µM | IC50 (second compound 3.16 µM): > 10 µM | IC50 (second compound 10 µM): > 10 µM | viability, T/C [3]: 101% | viability, T/C [4]: 101% | viability, T/C [5]: 106% | viability, T/C [6]: 108% | viability, T/C [37]: 110% | viability, T/C [38]: 107% | viability, T/C [9]: 114% | viability, T/C [10]: 110% | viability, T/C [11]: 104% | viability, T/C [12]: 104% | viability, T/C [39]: 118% | viability, T/C [40]: 109% | viability, T/C [15]: 119% | viability, T/C [16]: 102% | viability, T/C [17]: 96.1% | viability, T/C [18]: 104% | viability, T/C [41]: 115% | viability, T/C [42]: 104% | viability, T/C [21]: 117% | viability, T/C [22]: 94% | viability, T/C [23]: 98.1% | viability, T/C [24]: 103% | viability, T/C [43]: 112% | viability, T/C [44]: 107% | viability, T/C [27]: 103% | viability, T/C [28]: 111% | viability, T/C [29]: 97.2% | viability, T/C [30]: 112% | viability, T/C [45]: 113% | viability, T/C [46]: 118% | viability, T/C [33]: 105% | viability, T/C [34]: 98.6% | viability, T/C [35]: 92.3% | viability, T/C [36]: 105% | viability, T/C [47]: 105% | viability, T/C [48]: 102%

O=C(c1cc(Cc2n[nH]c(=O)c3ccccc23)ccc1F)N1CCN(C(=O)C2CC2)CC1 + Nc1ccc(C#CCN(C(=O)Cc2ncc(C(F)(F)F)cc2C(F)(F)F)c2ccc(F)cc2)nn1
IC50 (second compound 0.0316 µM): > 10 µM | IC50 (second compound 0.1 µM): > 10 µM | IC50 (second compound 0.316 µM): > 10 µM | IC50 (second compound 1 µM): > 10 µM | IC50 (second compound 3.16 µM): > 10 µM | IC50 (second compound 10 µM): > 10 µM | viability, T/C [3]: 106% | viability, T/C [4]: 104% | viability, T/C [5]: 101% | viability, T/C [6]: 103% | viability, T/C [37]: 110% | viability, T/C [38]: 106% | viability, T/C [9]: 108% | viability, T/C [10]: 103% | viability, T/C [11]: 105% | viability, T/C [12]: 112% | viability, T/C [39]: 103% | viability, T/C [40]: 102% | viability, T/C [15]: 99.9% | viability, T/C [16]: 102% | viability, T/C [17]: 102% | viability, T/C [18]: 103% | viability, T/C [41]: 114% | viability, T/C [42]: 102% | viability, T/C [21]: 103% | viability, T/C [22]: 100% | viability, T/C [23]: 98.7% | viability, T/C [24]: 95.9% | viability, T/C [43]: 113% | viability, T/C [44]: 106% | viability, T/C [27]: 103% | viability, T/C [28]: 97.7% | viability, T/C [29]: 99.9% | viability, T/C [30]: 103% | viability, T/C [45]: 117% | viability, T/C [46]: 104% | viability, T/C [33]: 95.8% | viability, T/C [34]: 105% | viability, T/C [35]: 107% | viability, T/C [36]: 96.6% | viability, T/C [47]: 97.6% | viability, T/C [48]: 96.1%
